In brackets after ≈: the same amount, converted by molar mass. Each block holds one molecule with its values, some of them ahead of it.
Tests used:
Assay type in all cases: functional
Staphylococcus aureus [1] = assay: Antibacterial activity against methicillin-resistant Staphylococcus aureus clinical isolate 1 assessed as bacterial growth inhibition incubated for 8 hrs by CLSI based broth microdilution method
Staphylococcus aureus [2] = assay: Antibacterial activity against methicillin-resistant Staphylococcus aureus clinical isolate 2 assessed as bacterial growth inhibition incubated for 8 hrs by CLSI based broth microdilution method
Escherichia coli [3] = assay: Antibacterial activity against Escherichia coli assessed as bacterial growth inhibition
Pseudomonas aeruginosa [4] = assay: Antibacterial activity against Pseudomonas aeruginosa assessed as bacterial growth inhibition
Staphylococcus aureus [5] = assay: Antibacterial activity against Staphylococcus aureus ATCC 25923 assessed as bacterial growth inhibition incubated for 18 to 20 hrs by broth microdilution method; conditions: time 18-20 hrs
Escherichia coli [6] = assay: Antibacterial activity against Escherichia coli ATCC 25922 assessed as bacterial growth inhibition incubated for 18 to 20 hrs by broth microdilution method; conditions: time 18-20 hrs
Klebsiella pneumoniae = assay: Antibacterial activity against Klebsiella pneumoniae ATCC 29665 assessed as bacterial growth inhibition incubated for 18 to 20 hrs by broth microdilution method; conditions: time 18-20 hrs
Acinetobacter baumannii = assay: Antibacterial activity against Acinetobacter baumannii ATCC 19606 assessed as bacterial growth inhibition incubated for 18 to 20 hrs by broth microdilution method; conditions: time 18-20 hrs
Pseudomonas aeruginosa [7] = assay: Antibacterial activity against Pseudomonas aeruginosa ATCC 27853 assessed as bacterial growth inhibition incubated for 18 to 20 hrs by broth microdilution method; conditions: time 18-20 hrs
Escherichia coli [8] = assay: Antibacterial activity against Escherichia coli assessed as bacterial growth inhibition by serial dilution method
Pseudomonas aeruginosa [9] = assay: Antibacterial activity against Pseudomonas aeruginosa assessed as bacterial growth inhibition by serial dilution method
Bacillus subtilis = assay: Antibacterial activity against Bacillus subtilis assessed as bacterial growth inhibition by serial dilution method
Staphylococcus aureus [10] = assay: Antibacterial activity against Staphylococcus aureus assessed as bacterial growth inhibition by serial dilution method
[11] = test system: Staphylococcus epidermidis; assay: Antibacterial activity against Staphylococcus epidermidis assessed as bacterial growth inhibition by serial dilution method

- MIC (Staphylococcus aureus [5]): 0.25 µg/mL (≈ 0.44 µM)
- MIC (Escherichia coli [6]): 0.25 µg/mL (≈ 0.44 µM)
- MIC (Klebsiella pneumoniae): 0.25 µg/mL (≈ 0.44 µM)
- MIC (Acinetobacter baumannii): 0.25 µg/mL (≈ 0.44 µM)
- MIC (Pseudomonas aeruginosa [7]): 0.25 µg/mL (≈ 0.44 µM)
SMILES: O=C(O)c1cn(C2CC2)c2cc(N3CCN(Cc4cn(CC(=O)N5CCC[C@H]5C(=O)O)nn4)CC3)c(F)cc2c1=O

- MIC (Staphylococcus aureus [5]): 0.25 µg/mL (≈ 0.365 µM)
- MIC (Escherichia coli [6]): 0.25 µg/mL (≈ 0.365 µM)
- MIC (Klebsiella pneumoniae): 0.25 µg/mL (≈ 0.365 µM)
- MIC (Acinetobacter baumannii): 0.25 µg/mL (≈ 0.365 µM)
- MIC (Pseudomonas aeruginosa [7]): 0.25 µg/mL (≈ 0.365 µM)
SMILES: O=C(Cn1cc(CN2CCN(c3cc4c(cc3F)c(=O)c(C(=O)O)cn4C3CC3)CC2)nn1)N[C@@H](Cc1ccccc1C(F)(F)F)C(=O)O

- MIC (Escherichia coli [8]): 25 µg/mL (≈ 67.4 µM)
- MIC (Pseudomonas aeruginosa [9]): 25 µg/mL (≈ 67.4 µM)
- MIC (Bacillus subtilis): 25 µg/mL (≈ 67.4 µM)
- MIC (Staphylococcus aureus [10]): 25 µg/mL (≈ 67.4 µM)
- MIC [11]: 25 µg/mL (≈ 67.4 µM)
SMILES: NC(=O)N/N=C/c1ccccc1OCc1cn(-c2ccc(Cl)cc2)nn1

- MIC (Escherichia coli [3]): 1.56 µg/mL (≈ 3.29 µM)
- MIC (Pseudomonas aeruginosa [4]): 1.56 µg/mL (≈ 3.29 µM)
SMILES: COc1ccc(Cn2cc(COc3ccc(/C=C/C(=O)c4c(O)cc(C)oc4=O)cc3)nn2)cc1

- MIC (Escherichia coli [3]): 9.75 µg/mL (≈ 16.3 µM)
SMILES: COC(=O)[C@H](C)NC(=O)c1cc(=O)n(Cc2cn(C3O[C@H]4OC(C)(C)O[C@H]4[C@@H]4OC(C)(C)OC[C@@H]34)nn2)c2ccccc12 (some centres not stated)

The remaining lines, values behind:

SMILES: C#CCOCCOCCOCc1cn([C@H](CC(C)C)C(=O)N[C@@H]2Cc3ccc(c(Cl)c3)Oc3cc4cc(c3O[C@@H]3O[C@H](CO)[C@@H](O)[C@H](O)[C@H]3O[C@H]3C[C@](C)(NCCCCCCCc5ccccc5)[C@H](O)[C@H](C)O3)Oc3ccc(cc3Cl)[C@@H](O)[C@@H]3NC(=O)[C@H](NC(=O)[C@@H]4NC(=O)[C@H](CC(=O)O)NC2=O)c2ccc(O)c(c2)-c2c(O)cc(O)cc2[C@H](C(=O)O)NC3=O)nn1
- MIC (Staphylococcus aureus [1]): 25 µg/mL (≈ 13.9 µM)
- MIC (Staphylococcus aureus [2]): 12.5 µg/mL (≈ 6.93 µM)

SMILES: Cc1cc(O)c(C(=O)/C=C/c2ccc(OCc3cn(Cc4ccc(Br)cc4)nn3)cc2)c(=O)o1
- MIC (Escherichia coli [3]): 1.56 µg/mL (≈ 2.99 µM)
- MIC (Pseudomonas aeruginosa [4]): 1.56 µg/mL (≈ 2.99 µM)

SMILES: O=C(/C=C/c1ccc(OCc2cn(Cc3cccc(Br)c3)nn2)cc1)c1ccc([N+](=O)[O-])cc1
- MIC (Escherichia coli [3]): 6.25 µg/mL (≈ 12 µM)
- MIC (Pseudomonas aeruginosa [4]): 6.25 µg/mL (≈ 12 µM)

SMILES: CC(C)C[C@H](C(=O)N[C@@H]1Cc2ccc(c(Cl)c2)Oc2cc3cc(c2O[C@@H]2O[C@H](CO)[C@@H](O)[C@H](O)[C@H]2O[C@H]2C[C@](C)(NCCCCCCCc4ccccc4)[C@H](O)[C@H](C)O2)Oc2ccc(cc2Cl)[C@@H](O)[C@@H]2NC(=O)[C@H](NC(=O)[C@@H]3NC(=O)[C@H](CC(=O)O)NC1=O)c1ccc(O)c(c1)-c1c(O)cc(O)cc1[C@H](C(=O)O)NC2=O)n1cc(COCCOCCOCc2cn([C@H](CC(C)C)C(=O)N[C@@H]3Cc4ccc(c(Cl)c4)Oc4cc5cc(c4O[C@@H]4O[C@H](CO)[C@@H](O)[C@H](O)[C@H]4O[C@H]4C[C@](C)(NCCCCCCCc6ccccc6)[C@H](O)[C@H](C)O4)Oc4ccc(cc4Cl)[C@@H](O)[C@@H]4NC(=O)[C@H](NC(=O)[C@@H]5NC(=O)[C@H](CC(=O)O)NC3=O)c3ccc(O)c(c3)-c3c(O)cc(O)cc3[C@H](C(=O)O)NC4=O)nn2)nn1
- MIC (Staphylococcus aureus [1]): 6.25 µg/mL (≈ 1.83 µM)
- MIC (Staphylococcus aureus [2]): 6.25 µg/mL (≈ 1.83 µM)

SMILES: CC(C)C[C@@H](N)C(=O)N[C@H]1C(=O)N[C@@H](CC(N)=O)C(=O)N[C@H]2C(=O)N[C@H]3C(=O)N[C@H](C(=O)N[C@H](C(=O)O)c4cc(O)cc(O)c4-c4cc3ccc4O)[C@H](O)c3ccc(c(Cl)c3)Oc3cc2cc(c3O[C@@H]2O[C@H](CO)[C@@H](O)[C@H](O)[C@H]2O[C@H]2C[C@](C)(N)[C@H](O)[C@H](C)O2)Oc2ccc(cc2Cl)[C@H]1O
- MIC (Staphylococcus aureus [1]): 1.56 µg/mL (≈ 1.09 µM)
- MIC (Staphylococcus aureus [2]): 1.56 µg/mL (≈ 1.09 µM)

SMILES: O=C(Cn1cc(CN2CCN(c3cc4c(cc3F)c(=O)c(C(=O)O)cn4C3CC3)CC2)nn1)N[C@@H](Cc1ccccn1)C(=O)O
- MIC (Staphylococcus aureus [5]): 0.25 µg/mL (≈ 0.404 µM)
- MIC (Escherichia coli [6]): 0.25 µg/mL (≈ 0.404 µM)
- MIC (Klebsiella pneumoniae): 0.25 µg/mL (≈ 0.404 µM)
- MIC (Acinetobacter baumannii): 0.25 µg/mL (≈ 0.404 µM)
- MIC (Pseudomonas aeruginosa [7]): 0.25 µg/mL (≈ 0.404 µM)

SMILES: NC(=O)N/N=C/c1ccccc1OCc1cn(-c2ccc(Br)cc2)nn1
- MIC (Escherichia coli [8]): 25 µg/mL (≈ 60.2 µM)
- MIC (Pseudomonas aeruginosa [9]): 25 µg/mL (≈ 60.2 µM)
- MIC (Bacillus subtilis): 25 µg/mL (≈ 60.2 µM)
- MIC (Staphylococcus aureus [10]): 25 µg/mL (≈ 60.2 µM)
- MIC [11]: 25 µg/mL (≈ 60.2 µM)

SMILES: CC(C)C[C@H](C(=O)N[C@@H]1Cc2ccc(c(Cl)c2)Oc2cc3cc(c2O[C@@H]2O[C@H](CO)[C@@H](O)[C@H](O)[C@H]2O[C@H]2C[C@](C)(NCCCCCCCc4ccccc4)[C@H](O)[C@H](C)O2)Oc2ccc(cc2Cl)[C@@H](O)[C@@H]2NC(=O)[C@H](NC(=O)[C@@H]3NC(=O)[C@H](CC(=O)O)NC1=O)c1ccc(O)c(c1)-c1c(O)cc(O)cc1[C@H](C(=O)O)NC2=O)n1cc(COCCCCCCOCc2cn([C@H](CC(C)C)C(=O)N[C@@H]3Cc4ccc(c(Cl)c4)Oc4cc5cc(c4O[C@@H]4O[C@H](CO)[C@@H](O)[C@H](O)[C@H]4O[C@H]4C[C@](C)(NCCCCCCCc6ccccc6)[C@H](O)[C@H](C)O4)Oc4ccc(cc4Cl)[C@@H](O)[C@@H]4NC(=O)[C@H](NC(=O)[C@@H]5NC(=O)[C@H](CC(=O)O)NC3=O)c3ccc(O)c(c3)-c3c(O)cc(O)cc3[C@H](C(=O)O)NC4=O)nn2)nn1
- MIC (Staphylococcus aureus [1]): 6.25 µg/mL (≈ 1.82 µM)
- MIC (Staphylococcus aureus [2]): 6.25 µg/mL (≈ 1.82 µM)

SMILES: CC(C)C[C@H](C(=O)N[C@@H]1Cc2ccc(c(Cl)c2)Oc2cc3cc(c2O[C@@H]2O[C@H](CO)[C@@H](O)[C@H](O)[C@H]2O[C@H]2C[C@](C)(NCCCCCCCc4ccccc4)[C@H](O)[C@H](C)O2)Oc2ccc(cc2Cl)[C@@H](O)[C@@H]2NC(=O)[C@H](NC(=O)[C@@H]3NC(=O)[C@H](CC(=O)O)NC1=O)c1ccc(O)c(c1)-c1c(O)cc(O)cc1[C@H](C(=O)O)NC2=O)n1cc(COc2ccc(-c3ccc(OCc4cn([C@@H](CC(C)C)C(=O)N[C@H]5Cc6ccc(c(Cl)c6)Oc6cc7cc(c6O[C@H]6O[C@@H](CO)[C@H](O)[C@@H](O)[C@@H]6O[C@@H]6C[C@@](C)(NCCCCCCCc8ccccc8)[C@@H](O)[C@@H](C)O6)Oc6ccc(cc6Cl)[C@H](O)[C@H]6NC(=O)[C@@H](NC(=O)[C@H]7NC(=O)[C@@H](CC(=O)O)NC5=O)c5ccc(O)c(c5)-c5c(O)cc(O)cc5[C@@H](C(=O)O)NC6=O)nn4)cc3)cc2)nn1
- MIC (Staphylococcus aureus [1]): 6.25 µg/mL (≈ 1.78 µM)
- MIC (Staphylococcus aureus [2]): 6.25 µg/mL (≈ 1.78 µM)

SMILES: NC(=S)N/N=C/c1ccccc1OCc1cn(Cc2ccc(Br)cc2)nn1
- MIC (Escherichia coli [8]): 6.25 µg/mL (≈ 14 µM)
- MIC (Pseudomonas aeruginosa [9]): 6.25 µg/mL (≈ 14 µM)
- MIC (Bacillus subtilis): 6.25 µg/mL (≈ 14 µM)
- MIC (Staphylococcus aureus [10]): 6.25 µg/mL (≈ 14 µM)
- MIC [11]: 6.25 µg/mL (≈ 14 µM)

Reference: ChEMBL document CHEMBL5344406, “1,2,3-Triazole-containing hybrids with potential antibacterial activity against ESKAPE pathogens” (2022)
